Each structure is given as a SMILES string.

One data set relates to Sprague-Dawley rats. The data set is described as follows: Maximal Electroshock Assay (Rat). The class given is in vivo. To be noted: rat MES, 0.5 h and 4 h pretreatment timepoints. How it is done:
Male, Sprague-Dawley rats (approx. 100 g body weight) were prescreened for tonic seizure susceptibility prior to drug testing. […] Protection was defined by the absence of a tonic extensor seizure in the animal within 20 s of application of the electrical stimulus, which typically occurred in all vehicle pretreated animals. Animals received only one electroshock on the drug test day and so separate animals were used for the 0.5 h and 4 h timepoints. All drugs were administered in multiple doses.
Background: The maximal electroshock test induces tonic seizures with an electrical stimulus.

The test system of the next data set is CD-1 mice. The data set is described as follows: Maximal Electroshock Assay (Mouse). The class given is in vivo. Conditions: mouse MES, 1 h and 4 h pretreatment timepoints. The method, then: Male, CD-1 mice (20-30 g body weight) were orally pretreated with test compound or vehicle control, and either at 1 h or 4 h post dose a maximal electroshock (45 mA amplitude, 0.2 s duration, 60 Hz) was applied by corneal electrodes. […] Animals received only one electroshock and so separate animals were used for the 1 h and 4 h timepoints. All drugs were administered in multiple doses.

For the next data set, the system named is SNI rats. The data set is described as follows: Spared nerve injury (SNI) model, mechanical allodynia. Conditions: 30 mg/kg, i.p. It is filed as in vivo, rat. How it is done: The compounds were tested for their efficacy in reducing mechanical allodynia and cold allodynia in the spared nerve injury (SNI) model of chronic neuropathic pain. In this model, the left sciatic nerve of the rat is exposed under anesthesia. Two of the branches of the sciatic nerve viz. the common peroneal and tibial nerve are ligated and sectioned. The third branch (sural nerve) is left intact. The animals were allowed a post-operative recovery period of 7 days before they were subjected to any test.
The presence of mechanical allodynia was assessed using the Dynamic Plantar Aesthesiometer (Ugo Basile, Italy) which is a modified version of the Von Frey Hair test. In this, a test filament is positioned below the animal's hind paw and the unit is activated which causes the filament to move up and touch the plantar surface of the hind paw. Increasing force is applied to the paw via the filament. […] The cut-off force is set at 50 g. The tests were done on both the non-injured (control) and the injured (SNI) paw.
Testing of compounds was done after 21 days post-operatively. After initial basal readings were taken, the test compound or the vehicle was administered (10 ml/kg) either intraperitoneally (30 mg/kg) or orally (60 mg/kg). The readings were taken again 30, 60 and 180 min after the compound/vehicle administration.

In general, melting point refers to the temperature, or range, at which the solid turns liquid. `CC(=O)N[C@H](COC(F)F)C(=O)NCc1ccc(F)cc1`: the melting point was 162.7 °C.

For `CC(=O)NC(COC(F)F)C(=O)NCc1ccccc1` (centres unmarked) [Compound 3, 2-(Acetylamino)-N-benzyl-3-(difluoro-methoxy)propanamide], the duration of action result in the data set on Sprague-Dawley rats and with CD-1 mice was “longer than Lacosamide” throughout.

For `CC(=O)NC(COC(F)F)C(=O)NCc1ccc(F)cc1` (centres unmarked) [Compound 4], the duration of action result with Sprague-Dawley rats and in the data set on CD-1 mice was “longer than Lacosamide” each time.

Regarding `CC(=O)N[C@H](COC(F)F)C(=O)NCc1ccc(Cl)cc1` [Compound 20, (2R)-2-(acetylamino)-N-(4-chlorobenzyl)-3-(difluoromethoxy)propanamide], the “withdrawal threshold, Post Admin 60 min” value in the data set on SNI rats stood at 25.3 ± 3.2 g. Moreover, the duration of action entry in the data set on Sprague-Dawley rats and in the data set with CD-1 mice was “longer than Lacosamide” in each case.
